Target: T1, α1a (bovine) adrenoreceptor (Bos taurus, UniProt P18130)
T1 sequence (P18130 1-466): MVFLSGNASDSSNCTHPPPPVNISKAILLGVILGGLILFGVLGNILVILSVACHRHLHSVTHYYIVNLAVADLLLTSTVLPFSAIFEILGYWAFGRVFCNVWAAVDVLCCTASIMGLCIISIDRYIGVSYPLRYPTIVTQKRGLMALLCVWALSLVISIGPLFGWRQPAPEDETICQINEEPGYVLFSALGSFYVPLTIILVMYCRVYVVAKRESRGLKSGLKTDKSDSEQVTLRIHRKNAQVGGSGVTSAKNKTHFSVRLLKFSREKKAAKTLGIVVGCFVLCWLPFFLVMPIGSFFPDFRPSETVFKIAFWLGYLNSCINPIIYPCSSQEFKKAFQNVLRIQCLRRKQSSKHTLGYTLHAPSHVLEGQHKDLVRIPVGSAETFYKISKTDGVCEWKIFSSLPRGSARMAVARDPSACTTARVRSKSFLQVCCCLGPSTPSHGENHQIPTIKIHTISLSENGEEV
Experiment: [3H]-prazosin radioligand binding, cloned α1a (bovine) adrenoreceptor in LTK cells
Conditions: cloned receptor in LTK cell membranes, [3H]prazosin 0.2 nM
Method: Representative compounds of the invention were evaluated for α adrenoreceptor binding affinity in vitro using [^3H]-prazosin as the radioligand and following four cloned α1, adrenoreceptors expressed in LTK cells: α1a (rat), α1a (bovine), α1b : (hampster), and α1d (rat).
The cDNA clones encoding the α1, adrenoreceptors were obtained from TULCO (Triangle Universities Licensing Consortium, Research Triangle Park, N.C.) and inserted into the eukaryotic expression vector SnaB30. In this vector, expression of the adrenoreceptor gene is under the transcriptional control of an SV40 early promoter. Positive drug selection is provided by a neomycin-resistance gene. Mouse fibroblast cells (LTK) were transfected with the α1 expression plasmids and grown in Dulbecco's modified Eagle's medium (DMEM) containing 10% fetal calf serum and 30 μM G418. Stable G418-resistant parental lines were generated with successful expression of adrenoreceptor protein monitored using radioligand binding techniques. Stable single cell clones derived from the parental lines were screened in adrenoreceptor binding assays to identify clones having high adrenoreceptor density. Roller bottle cultures of the cloned lines were used to provide cell membranes for subsequent adrenoreceptor binding characterization studies. A cell line containing the SnaB30 vector expressing the human erythropoietin gene served as a negative control.
For adrenoreceptor binding assays, large scale membrane preparations were utilized in which 6 million cells were seeded into small (450 cm^2) Coming tissue culture roller bottles. DMEM (200 mL) containing 10% fetal calf serum and 300 μM G418 were added to each roller bottle. A 95% air/5% CO2 gas mixture (sterile) was injected into each roller bottle prior to sealing, and the bottles were then incubated at 37° C. on a roller rack for 5 days. Cells were refed with fresh medium after 3 days in culture.
On the fifth day of culture, growth medium was removed from cells grown in roller bottles, and the cells were washed twice with PBS (Sigma, 120 mM NaCl, 2.7 mM KCl, 10 mM Na2HPO4-NaH2PO4, pH=7.4). Cells were detached from the roller bottles by incubating for 15 minutes at 37° C. in a Tris-EDTA solution (10 mM Tris, 100 mM NaCl, 1 mM EDTA, pH=7.4). The cell suspension from each roller bottle was decanted into tared centrifuge tubes and kept on ice. An aliquot of each cell suspension was generally taken for cell counting. Cells were centrifuged at 3000×G for 5 minutes at 2-4° C., washed with PBS and recentrifuged. The supernatant was decanted, and the pellet was weighed to determine the wet weight of cells. Cells were washed a final time in 40 vol 5 mM Tris-HCl, 5 mM EDTA, pH=7.7 and centrifuged at 40,000×G for 10 minutes (“vol” indicates volume/weight, e.g., a “vol” of 40 would indicate that the one gram of cells were washed with 40 mls of buffer). Cells were homogenized in of 50 mM Tris-HCl, 5 mM EDTA (pH=7.4) (10 mL) and diluted to 40 mL/tube. Homogenates were centrifuged at 40,000×G for 10 minutes. The supernatant was decanted and the pellets rehomogenized in 50 mM Tris-HCl (pH=7.4) and centrifuged as before. The supernatant was decanted and the homogenate was resuspended in 6.25 volumes (per gram wet weight) of 50 mM Tris-HCl and aliquots of the pooled homogenates frozen in liquid N2 and,stored at −70° C. until the time of assay.
Receptor binding assays for α1 adrenoreceptors were performed essentially as described by Greengrass and Bremner (Eur. J. Pharmacol. 55: 323-326 (1979)). […] Following equilibration, bound radioligand was separated from free on GF/B filters (presoaked in 0.5% polyethyleneimine) using ither a Brandel or Packard cell harvester. Radioactivity was determined by standard liquid scintillation techniques. Data were analyzed as previously described (Hancock, A. A., Kyncl, J. J., Martin, Y. C. and DeBemardis, J. F., J. Receptor Res. 8: 23-46 (1988)). The in Table 1.

Ki: 2.72 nM
Compound: Cl.Cl.O=c1[nH]c2c(sc3ncccc32)c(=O)n1CCCCN1CCN2c3ccccc3OCC2C1 (single isomer, unassigned; (+)) [Example 5, (+) 3-[4-(1,2,4a,5-tetrahydropyrazino[2,1-c][1,4]benzoxazin-3(4H)-yl)butyl]pyrido[3′, 2′:4,5]thieno[3,2-d]pyrimidine-2,4(1H,3H)-dione dihydrochloride]

From patent US6376488B1, “Benzoxazine α-1 adrenergic compounds” (Abbott Laboratories, priority 2000, dated 2002)
